Tests used:
[1] = system: HCV genotype 1a replicon; assay: HCV replicon assay, genotype 1a (cell ELISA for replicon-encoded NS3/4A); type: cell-based; details: Hepatitis C virus, 96 h, read-out: 1a IC50
Method: (§1) Measurement of inhibition by compounds was performed using the HCV replicon system. Several different replicons encoding different HCV genotypes or mutations were used. In addition, potency measurements were made using different formats of the replicon assay, including different ways of measurements and different plating formats. See Jan M. Vrolijk et al., A replicons-based bioassay for the measurement of interferons in patients with chronic hepatitis C, 110 J. V[…] 201 (2003); Steven S. Carroll et al., Inhibition of Hepatitis C Virus RNA Replication by 2′-Modified Nucleoside Analogs, 278(14) J. BIOLOGICAL CHEMISTRY 11979 (2003). However, the underlying principles are common to all of these determinations, and are outlined below.
(§2) Stable neomycin phosphotransferase encoding replicons-harboring cell lines were used, so all cell lines were maintained under G418 selection prior to the assay. Potency was determined using a cell ELISA assay with an antibody to the replicons encoded NS3/4a protease. See Caterina Trozzi et al., In Vitro Selection and Characterization of Hepatitis C Virus Serine Protease Variants Resistant to an Active-Site Peptide Inhibitor, 77(6) J. Virol. 3669 (2003). To initiate an assay, replicon cells were plated in the presence of a dilution series of test compound in the absence of G418. Typically, the assays were performed in a 96-well plate formate for manual operation, or a 384-well plate format for automated assay. Replicon cells and compound were incubated for 96 hours. At the end of the assay, cells were washed free of media and compound, and the cells were then lysed. RNA was quantified indirectly through detection of replicon-encoded NS3/4A protein levels, through an ELISA-based assay with an antibody specific for NS3/4A. IC50 determinations were calculated as a percentage of a DMSO control by fitting the data to a four-parameter fit function and the data obtained is provided in the table below.
(§3) Data for selected compounds of the present invention was obtained for genotypes 1a and 1b using this method and is provided in the table below: […]

[2] = system: HCV genotype 1b replicon; assay: HCV replicon assay, genotype 1b (cell ELISA for replicon-encoded NS3/4A); type: cell-based; details: Hepatitis C virus, 96 h, read-out: 1b IC50
Method: as §1, §2, §3

Row | Compound | IC50 [1] | IC50 [2]
1 | CNC(=O)c1c(C(=O)N2CCC2)oc2cc(N(C)S(C)(=O)=O)c(-c3ccc4c(n3)-c3cc5c(F)cccc5n3CO4)cc12 [Compound 56] | 0.005 µM | 0.011 µM
2 | CNC(=O)c1c(C2CC2(C)C)oc2cc(N(C)S(C)(=O)=O)c(-c3ccc4c(n3)-c3cc5c(F)cccc5n3CO4)cc12 (stereo not drawn) [Compound 49] | 0.027 µM | 0.022 µM
3 | CNC(=O)c1oc2cc(N(C)S(C)(=O)=O)c(-c3ccc4c(n3)-c3cc5c(F)cccc5n3CO4)cc2c1C(=O)NC [Compound 54, 5-(11-fluoro-6H-pyrido[2′,3′:5,6][1,3]oxazino[3,4-a]indol-2-yl)-N2,N3-dimethyl-6-(N-methylmethylsulfonamido)benzofuran-2,3-dicarboxamide] | 0.0043 µM | 0.0071 µM
4 | CNC(=O)c1c(C2CC2)oc2cc(N(C)S(C)(=O)=O)c(-c3ncc4c(n3)-c3cc5c(F)cccc5n3CO4)cc12 [Compound 53] | 0.033 µM | 0.03 µM
5 | CNC(=O)c1c(-n2ccc(C)cc2=O)oc2cc(N(C)S(C)(=O)=O)c(-c3ccc4c(n3)-c3cc5c(F)cccc5n3CO4)cc12 [Compound 38] | 0.0035 µM | 0.0027 µM
6 | CNC(=O)c1c(C2CC2)oc2cc(N(C)S(C)(=O)=O)c(-c3cc4c(cn3)OC(CO)n3c-4cc4c(F)cccc43)cc12 (stereo not drawn) [Compound 52] | 0.052 µM | 0.023 µM
7 | CNC(=O)c1c(-c2ccc(=O)n(C(F)F)c2)oc2cc(N(C)S(C)(=O)=O)c(-c3ccc4c(n3)-c3cc5c(F)cccc5n3CO4)cc12 [Compound 26, 2-(1-(difluoromethyl)-6-oxo-1,6-dihydropyridin-3-yl)-5-(11-fluoro-6H-pyrido[2′,3′:5,6][1,3]oxazino[3,4-a]indol-2-yl)-N-methyl-6-(N-methylmethylsulfonamido)benzofuran-3-carboxamide] | 0.118 µM | 0.108 µM
8 | CNC(=O)c1c(-c2ccc(C(F)F)cc2)oc2cc(N(C)S(C)(=O)=O)c(-c3ccc4c(n3)-c3cc5c(F)cccc5n3CO4)cc12 [Compound 28, 2-(4-(difluoromethyl)phenyl)-5-(11-fluoro-6H-pyrido[2′,3′:5,6][1,3]oxazino[3,4-a]indol-2-yl)-N-methyl-6-(N-methylmethylsulfonamido)benzofuran-3-carboxamide] | 0.009 µM | 0.0069 µM
9 | CNC(=O)c1c(-c2ccc(C(F)(F)F)cn2)oc2cc(N(C)S(C)(=O)=O)c(-c3ccc4c(n3)-c3cc5c(F)cccc5n3CO4)cc12 [Compound 31] | 0.0059 µM | 0.0039 µM
10 | CNC(=O)c1c(-c2nnc(C)o2)oc2cc(N(C)S(C)(=O)=O)c(-c3ccc4c(n3)-c3cc5c(F)cccc5n3CO4)cc12 [Compound 58, 5-(11-fluoro-6H-pyrido[2′,3′:5,6][1,3]oxazino[3,4-a]indol-2-yl)-N-methyl-2-(5-methyl-1,3,4-oxadiazol-2-yl)-6-(N-methylmethylsulfonamido)benzofuran-3-carboxamide] | 0.0081 µM | 0.0079 µM
11 | CNC(=O)c1c(C2CC2)oc2cc(N(C)S(C)(=O)=O)c(-c3ccc4c(n3)-c3cc5c(F)cccc5n3CO4)cc12 [Compound 2] | 0.013 µM | 0.012 µM
12 | CNC(=O)c1c(-c2cccnc2O)oc2cc(N(C)S(C)(=O)=O)c(-c3ccc4c(n3)-c3cc5c(F)cccc5n3CO4)cc12 [Compound 17, 5-(11-fluoro-6H-pyrido[2′,3′:5,6][1,3]oxazino[3,4-a]indol-2-yl)-2-(2-hydroxypyridin-3-yl)-N-methyl-6-(N-methylmethylsulfonamido)benzofuran-3-carboxamide] | 0.324 µM | 0.393 µM
13 | CNC(=O)c1c(-c2cnn(C(C)C)c2)oc2cc(N(C)S(C)(=O)=O)c(-c3ccc4c(n3)-c3cc5c(F)cccc5n3CO4)cc12 [Compound 34] | 0.015 µM | 0.014 µM
14 | CNC(=O)c1c(-c2ccc(OCC(F)(F)F)nc2)oc2cc(N(C)S(C)(=O)=O)c(-c3ccc4c(n3)-c3cc5c(F)cccc5n3CO4)cc12 [Compound 12] | 0.0027 µM | 0.0018 µM
15 | CNC(=O)c1c(-c2ccc(OC)nc2)oc2cc(N(C)S(C)(=O)=O)c(-c3ccc4c(n3)-c3cc5c(F)cccc5n3CO4)cc12 [Compound 11] | 0.0072 µM | 0.0084 µM
16 | CNC(=O)c1c(-c2ccc(C(F)(F)F)cc2)oc2cc(N(C)S(C)(=O)=O)c(-c3ccc4c(n3)-c3cc5c(F)cccc5n3CO4)cc12 [Compound 8] | 0.0063 µM | 0.0045 µM
17 | CNC(=O)c1c(-c2ccc(C(F)F)nc2)oc2cc(N(C)S(C)(=O)=O)c(-c3ccc4c(n3)-c3cc5c(F)cccc5n3CO4)cc12 [Compound 9] | 0.0025 µM | 0.0034 µM

Row | Compound | IC50 [1] | IC50 [2]
18 | CNC(=O)c1c(-n2ccnc2)oc2cc(N(C)S(C)(=O)=O)c(-c3ccc4c(n3)-c3cc5c(F)cccc5n3CO4)cc12 [Compound 36, 5-(11-fluoro-6H-pyrido[2′,3′:5,6][1,3]oxazino[3,4-a]indol-2-yl)-2-(1H-imidazol-1-yl)-N-methyl-6-(N-methylmethylsulfonamido)benzofuran-3-carboxamide] | 0.014 µM | 0.02 µM
19 | CNC(=O)c1c(C(=O)N2CCOCC2)oc2cc(N(C)S(C)(=O)=O)c(-c3ccc4c(n3)-c3cc5c(F)cccc5n3CO4)cc12 [Compound 57] | 0.232 µM | 0.135 µM
20 | CNC(=O)c1c(C2CC2(F)F)oc2cc(N(C)S(C)(=O)=O)c(-c3ccc4c(n3)-c3cc5c(F)cccc5n3CO4)cc12 (stereo not drawn) [Compound 50, 2-(2,2-difluorocyclopropyl)-5-(11-fluoro-6H-pyrido[2′,3′:5,6][1,3]oxazino[3,4-a]indol-2-yl)-N-methyl-6-(N-methylmethylsulfonamido)benzofuran-3-carboxamide] | 0.022 µM | 0.038 µM
21 | CNC(=O)c1c(-n2cnc(C)n2)oc2cc(N(C)S(C)(=O)=O)c(-c3ccc4c(n3)-c3cc5c(F)cccc5n3CO4)cc12 [Compound 41] | 0.082 µM | 0.022 µM
22 | CNC(=O)c1c(N2CCOC2=O)oc2cc(N(C)S(C)(=O)=O)c(-c3ccc4c(n3)-c3cc5c(F)cccc5n3CO4)cc12 [Compound 43] | 0.021 µM | 0.05 µM
23 | CNC(=O)c1c(-c2ccc(OCC(F)(F)F)nc2)oc2cc(N(C)S(C)(=O)=O)c(-c3ccc4c(n3)-c3cc5c(F)cccc5n3C(CO)O4)cc12 (stereo not drawn) [Compound 24] | 0.0017 µM | 0.0014 µM
24 | CNC(=O)c1c(-c2cccnc2OC)oc2cc(N(C)S(C)(=O)=O)c(-c3ccc4c(n3)-c3cc5c(F)cccc5n3CO4)cc12 [Compound 15] | 0.023 µM | 0.034 µM
25 | CNC(=O)c1c(C=C(C)C)oc2cc(N(C)S(C)(=O)=O)c(-c3ccc4c(n3)-c3cc5c(F)cccc5n3CO4)cc12 [Compound 3] | 0.0036 µM | 0.0058 µM
26 | CNC(=O)c1c(-c2ccc(OC)nc2)oc2cc(N(C)S(C)(=O)=O)c(-c3ccc4c(n3)-c3nc5cccc(F)c5n3CO4)cc12 [Compound 19, 5-(8-fluoro-6H-benzo[4,5]imidazo[1,2-c]pyrido[2,3-e][1,3]oxazin-2-yl)-2-(6-methoxypyridin-3-yl)-N-methyl-6-(N-methylmethylsulfonamido)benzofuran-3-carboxamide] | 0.035 µM | 0.013 µM
27 | CNC(=O)c1c(-c2cn(C)nc2C)oc2cc(N(C)S(C)(=O)=O)c(-c3ccc4c(n3)-c3cc5c(F)cccc5n3CO4)cc12 [Compound 16] | 0.026 µM | 0.0085 µM
28 | CNC(=O)c1c(-n2ccccc2=O)oc2cc(N(C)S(C)(=O)=O)c(-c3ccc4c(n3)-c3cc5c(F)cccc5n3CO4)cc12 [Compound 37] | 0.0022 µM | 0.003 µM
29 | CNC(=O)c1c(C2=CCCC2)oc2cc(N(C)S(C)(=O)=O)c(-c3ncc4c(n3)-c3cc5ccccc5n3CO4)cc12 [Compound 46] | 0.015 µM | 0.013 µM
30 | CNC(=O)c1c(-c2cnc(OC)nc2)oc2cc(N(C)S(C)(=O)=O)c(-c3ccc4c(n3)-c3cc5c(F)cccc5n3CO4)cc12 [Compound 13] | 0.016 µM | 0.0094 µM
31 | CNC(=O)c1c(-c2ccc(OC)nc2)oc2cc(N(C)S(C)(=O)=O)c(-c3ccc4c(n3)-c3cc5c(F)cccc5n3C(CO)O4)cc12 (single isomer, unassigned) [Compound 21, (S or R)-5-(11-fluoro-6-(hydroxymethyl)-6H-pyrido[2′,3′:5,6][1,3]oxazino[3,4-a]indol-2-yl)-2-(6-methoxypyridin-3-yl)-N-methyl-6-(N-methylmethylsulfonamido)benzofuran-3-carboxamide] | 0.0024 µM | 0.0028 µM
32 | CNC(=O)c1c(-c2ccc(C)nc2)oc2cc(N(C)S(C)(=O)=O)c(-c3ccc4c(n3)-c3cc5c(F)cccc5n3CO4)cc12 [Compound 7] | 0.0085 µM | 0.013 µM
33 | CNC(=O)c1c(-c2ccc(C(F)F)nc2)oc2cc(N(C)S(C)(=O)=O)c(-c3ccc4c(n3)-c3cc5c(F)cccc5n3C(CO)O4)cc12 (stereo not drawn) [Compound 22] | 0.0035 µM | 0.0025 µM

— patent US9242998B2, “Tetracyclic heterocycle compounds and methods of use thereof for the treatment of hepatitis C” (priority 2013, dated 2016)
